# What was measured:
# [1] = Toxicity in mice after intravenous administration (body weight, symptoms); assay type: in vivo; conditions: female mice, 20 μg per g of the body weight
# Experimental: The toxicity of the oligo 3 was examined. Specifically, the oligo 3 was dissolved in a physiological saline so as to have a concentration of 1 mg/mL and administered intravenously into female mice (5-week-old) in a dose of 20 μg per g of the body weight. On the day of administration (Day 0) and 2, 5, 10, 12 and 14 days after the administration, the weight of each mouse was determined.
# FIG. 6 is a graph showing the influence of the oligo 3 on increase of the body weight of the mouse in the case of intravenous administration in a dose of 20 μg/(body weight) g. In the graph, each datum is shown in mean±SE. Here, the data were obtained by using 7 mice for the oligo 3 and 6 mice for the control, respectively.
# [2] = system: HeLa cells; test: Induction of cell death of human cancer cells, microscopy and Giemsa staining; assay type: cell-based; conditions: 20 μM
# Experimental: Further, the induction of cell death of the human cancer cells by the oligo 3 was examined. Specifically, 3,000 HeLa cells were seeded in a slide chamber. After culture for 24 hours, the culture solution was exchanged with a culture solution containing the oligo 3 at a concentration of 20 μM. […] Furthermore, 24 hours after addition of the oligo 3, the cells were washed with phosphate buffered saline (PBS) and then subjected to Giemsa staining to determine the numbers of living cells and dead cells, and the survival ratio of the cells (%) was determined from the obtained numbers of the cells. Here, the oligo 5 was used additionally as a control.
# [3] = system: HeLa cells; test: Influence on growth of HeLa human cancer cells, modified MTT method (WST-1 + 1-methoxy PMS); assay type: cell-based
# Experimental: The influence of each oligo on cell growth was examined. Specifically, HeLa cells, which are human cancer cells in a DMEM medium containing 10% heat-inactivated fetal calf serum (FCS), were seeded at a density of 1500 cells/well in a 96-well plate. After culture for 24 hours, the culture solution was exchanged with a culture solution containing each oligo at a concentration of 10 μM and 1% FCS. The cells were cultured at 37° C. in the presence of CO2. Thereafter, the ratio of living cells [survival ratio of cells (%)] was examined over 4 days at 24-hour intervals (absorbance: 450 to 650 nm) by a modified MTT method (WST-1+1-methoxy PMS) using a cell counting kit (manufactured by DOJINDO). Here, a culture solution exchanged with a culture solution not containing any oligo was used as a control (this applies hereinafter).
# Then, an experiment was conducted in a similar manner, setting the concentration of the oligo 3 in the culture solutions at 2.5, 5, 10 and 20 μM respectively, to examine the relationship between the inhibition of growth of human cancer cells and the concentration.
# [4] = system: HeLa cells; test: Influence on DNA synthesis of cells, incorporation of [3H]-methylthymidine; assay type: cell-based, human; conditions: for incorporation ratio of [3H]-methylthymidine into the human cancer cells to the control: HeLa, 0.1% FCS, 24 hours
# Experimental: The influence of each oligo on DNA synthesis of cells was examined by observing the incorporation of [^3H]-methylthymidine into cells. Specifically, the cells were cultured for 24 hours in the same manner as described above, and then the culture solution was exchanged with a culture solution containing each oligo at a concentration of 5, 10 or 20 μM and 0.1% FCS. After 18 hours, 1 μCi/mL [^3H]-methylthymidine was added to the culture solution, and the cells were cultured for another 6 hours. After culture, the specific radioactivity of the cells after predetermined treatment was determined with a liquid scintillation counter.
substance,measurement,setting,value
"oligo 3: phosphorothioate antisense DNA oligonucleotide CCTCA, to positions 47-51 of 7SL RNA of SRP (SEQ ID NO: 1) (DNA, all phosphorothioate, methylation of C not given here)",generation of symptoms versus control,[1],not recognized
same,toxicity,[1],does not exhibit toxicity particularly
same,influence on increase of the body weight versus control,[1]; Day 0 to 14,no difference between the oligo 3 and the control
same,"survival ratio of the cells (living vs dead cells, Giemsa staining)",[2]; 24 hours after addition,30.8%
same,microscopic observation of cultured cells,[2]; about 18 hours after addition,a process of from shrinkage of cells to cell death was observed
same,"inhibitory effect on growth of the human cancer cells, compared among oligos 1 to 5","[3]; HeLa, 10 μM, over 4 days",highest inhibitory effect
same,concentration dependence of inhibition of growth of human cancer cells,"[3]; HeLa, 2.5, 5, 10 and 20 μM",increased in proportion to the concentration
same,survival ratio of the cells to the control,"[3]; HeLa, concentration series 2.5, 5, 10 and 20 μM (concentration of these values not given), Day 1",44.4%
same,survival ratio of the cells to the control,"[3]; HeLa, concentration series 2.5, 5, 10 and 20 μM (concentration of these values not given), Day 2",45.1%
same,survival ratio of the cells to the control,"[3]; HeLa, concentration series 2.5, 5, 10 and 20 μM (concentration of these values not given), Day 3",55.5%
same,survival ratio of the cells to the control,"[3]; HeLa, concentration series 2.5, 5, 10 and 20 μM (concentration of these values not given), Day 4",63.8%
same,survival ratio of the cells to the control,"[3]; HeLa, oligo 10 μM, 1% FCS, Day 1",49.6%
same,survival ratio of the cells to the control,"[3]; HeLa, oligo 10 μM, 1% FCS, Day 2",62.7%
same,survival ratio of the cells to the control,"[3]; HeLa, oligo 10 μM, 1% FCS, Day 3",71.6%
same,survival ratio of the cells to the control,"[3]; HeLa, oligo 10 μM, 1% FCS, Day 4",71.1%
same,"incorporation of [3H]-methylthymidine into the cells, compared among oligos 1 to 5","[4]; HeLa, 5, 10 or 20 μM",suppressed to the lowest level
same,incorporation ratio of [3H]-methylthymidine into the human cancer cells to the control,[4]; oligo 5 μM,57.5%
same,incorporation ratio of [3H]-methylthymidine into the human cancer cells to the control,[4]; oligo 10 μM,32.0%
same,incorporation ratio of [3H]-methylthymidine into the human cancer cells to the control,[4]; oligo 20 μM,16.6%
